{
  "source": "patent US20240279220A1",
  "about": "“INDOLE COMPOUNDS AND METHODS OF USE” (Genzyme Corporation, priority 2021, published 2024)",
  "data": [
    {"system": "NBD1/3D", "assay": "Aggregation analysis using differential static light scattering (DSLS), NBD1 thermal stability", "format": "binding, Human", "conditions": "ΔTagg versus DMSO control; compound at 100 μM", "description": "Purified recombinant NBD1 was produced using previously described methods (A. Schmidt, J. L. Mendoza, P. J. Thomas (2011) Biochemical and Biophysical Approaches to Probe CFTR Structure (365-376) M. D. Amaral, K. Kunzelmann (eds.), Cystic Fibrosis, Methods in Molecular Biology 741, Springer Science+Business Media). The effect of test compounds on thermal stability of NBD1 was evaluated by differential static light scattering (DSLS) using the Harbinger Stargazer-384 instrument (Epiphyte Three, Toronto, Canada).\nTest compounds were dissolved and diluted to desired concentrations in 100% DMSO. The compounds or DMSO controls (100 nL) were stamped into wells of a […] low volume optical plate (Corning Inc., Corning, NY) using the Echo 555 acoustic liquid handler (Labcyte Inc., San Jose, CA).\nNBD1 protein was diluted to 0.2 mg/ml in S200 buffer (50 mM Tris-HCl, 150 mM NaCl, 5 mM MgCl2, 2 mM ATP, 2 mM DTT, pH7.6) containing 1% glycerol. 10 uL of protein solution was aliquoted into the 384-well plate harboring the test compounds and 10 uL mineral oil was overlayed onto the protein solution, using the epMotion robotic liquid handler (Eppendorf North America, Hauppauge, NY). After placing into the Stargazer instrument, the plate was heated at 1° C. per minute to 70° C. Images were captured from 25° C. to 70° C. every 0.5° C. At the end of the experiment run, instrument software integrated image files and analyzed data automatically. A […] regression curve was generated for each well, representing the increase in light scattering over time. A temperature of aggregation (Tagg) was calculated based on the inflection point of the curve. To better compare data across experiments the average Tagg for DMSO control wells was calculated and subtracted from values for wells containing compounds to obtain a “ΔTagg” value. These ΔTagg values reflect stabilizing efficacy of the compounds.", "values": [
      {"smiles": "Cc1c(Oc2cccc(-c3ccn(Cc4cccc(CCC(=O)O)c4)n3)c2)ccc2[nH]ccc12", "note": "[Example 1, 3-(3-((3-(3-((4-Methyl-1H-indol-5-yl)oxy)phenyl)-1H-pyrazol-1-yl)methyl)phenyl)propanoic acid]", "DSLS NBD1/3D Human Stability delta-T (° C.) @ 100 (μM)": "B (B: 5-10° C.)"},
      {"smiles": "CC(C)(c1cnc(-c2cc(Oc3c(F)cc4[nH]ccc4c3CC(F)(F)F)ccc2F)[nH]1)c1cccc(CCC(=O)O)c1F", "note": "[Example 163, 3-(2-fluoro-3-(2-(2-(2-fluoro-5-((6-fluoro-4-(2,2,2-trifluoroethyl)-1H-indol-5-yl)oxy)phenyl)-1H-imidazol-5-yl)propan-2-yl)phenyl)propanoic acid]", "DSLS NBD1/3D Human Stability delta-T (° C.) @ 100 (μM)": "B (B: 5-10° C.)"},
      {"smiles": "CCC(C#N)(c1cccc(CCC(=O)O)c1)c1c[nH]c(-c2cc(Oc3c(F)cc4[nH]ccc4c3C)ccc2F)n1", "note": "(stereo not shown) [Example 51, 3-(3-(1-cyano-1-(2-(2-fluoro-5-((6-fluoro-4-methyl-1H-indol-5-yl)oxy)phenyl)-1H-imidazol-4-yl)propyl)phenyl)propanoic acid]", "DSLS NBD1/3D Human Stability delta-T (° C.) @ 100 (μM)": "A (A: T ≥ 10° C.)"},
      {"smiles": "CC(O)(c1cccc(CC(F)C(=O)O)c1)c1cnc(-c2cc(Oc3c(F)cc4[nH]ccc4c3F)ccc2F)[nH]1", "note": "(stereo not shown) [Example 202, 3-(3-(1-(2-(5-((4,6-difluoro-1H-indol-5-yl)oxy)-2-fluorophenyl)-1H-imidazol-5-yl)-1-hydroxyethyl)phenyl)-2-fluoropropanoic acid]", "DSLS NBD1/3D Human Stability delta-T (° C.) @ 100 (μM)": "A (A: T ≥ 10° C.)"},
      {"smiles": "O=C(O)CCCCCCc1ccc(Cc2nnc(-c3cccc(Oc4ccc5[nH]ccc5c4)c3)[nH]2)cc1", "note": "[Example 254, 7-(4-((5-(3-((1H-Indol-5-yl)oxy)phenyl)-4H-1,2,4-triazol-3-yl)methyl)phenyl)heptanoic acid]", "DSLS NBD1/3D Human Stability delta-T (° C.) @ 100 (μM)": "C (C: ≤5° C.)"},
      {"smiles": "[2H]C([2H])([2H])C(C#N)(c1cc(F)cc(CCC(=O)O)c1)c1c[nH]c(-c2cc(Oc3c(F)c(F)c4[nH]ccc4c3F)ccc2F)n1", "note": "(single isomer, unassigned) [Example 65, 3-(3-(1-cyano-1-(2-(2-fluoro-5-((4,6,7-trifluoro-1H-indol-5-yl)oxy)phenyl)-1H-imidazol-4-yl)ethyl-2,2,2-d3)-5-fluorophenyl)propanoic acid]", "DSLS NBD1/3D Human Stability delta-T (° C.) @ 100 (μM)": "B (B: 5-10° C.)"},
      {"smiles": "O=C(O)CCCCC#Cc1ccc(Cc2nnc(-c3cccc(Oc4ccc5[nH]ccc5c4)c3)[nH]2)cc1", "note": "[Example 253, 7-(4-((5-(3-((1H-Indol-5-yl)oxy)phenyl)-4H-1,2,4-triazol-3-yl)methyl)phenyl)hept-6-ynoic acid]", "DSLS NBD1/3D Human Stability delta-T (° C.) @ 100 (μM)": "C (C: ≤5° C.)"},
      {"smiles": "Cc1c(Oc2ccc(F)c(-c3nnc(Cc4cccc(N5CC(C(=O)O)C5)c4)[nH]3)c2)c(F)cc2[nH]ccc12", "note": "[Example 249, 1-(3-((5-(2-Fluoro-5-((6-fluoro-4-methyl-1H-indol-5-yl)oxy)phenyl)-4H-1,2,4-triazol-3-yl)methyl)phenyl)azetidine-3-carboxylic acid]", "DSLS NBD1/3D Human Stability delta-T (° C.) @ 100 (μM)": "C (C: ≤5° C.)"},
      {"smiles": "Cc1c(Oc2ccc(F)c(-c3ncc(C(C)(O)c4cccc(CCC(=O)O)c4)[nH]3)c2)c(F)cc2[nH]ccc12", "note": "(stereo not shown) [Example 186, 3-(3-(1-(2-(2-fluoro-5-((6-fluoro-4-methyl-1H-indol-5-yl)oxy)phenyl)-1H-imidazol-5-yl)-1-hydroxyethyl)phenyl) propanoic acid]", "DSLS NBD1/3D Human Stability delta-T (° C.) @ 100 (μM)": "B (B: 5-10° C.)"},
      {"smiles": "NC(=O)CCc1cccc(Cc2c[nH]c(-c3cc(Oc4c(F)cc5[nH]ccc5c4F)ccc3F)n2)c1", "note": "[Example 127, 3-(3-((2-(5-((4,6-Difluoro-1H-indol-5-yl)oxy)-2-fluorophenyl)-1H-imidazol-4-yl)methyl)phenyl)propanamide]", "DSLS NBD1/3D Human Stability delta-T (° C.) @ 100 (μM)": "C (C: ≤5° C.)"},
      {"smiles": "CC(c1cnc(-c2cc(Oc3c(F)cc4[nH]ccc4c3CP(C)(C)=O)ccc2F)[nH]1)c1cccc(CCC(=O)O)c1F", "note": "(single isomer, unassigned) [Example 133A, 3-(3-(1-(2-(5-((4-((dimethylphosphoryl)methyl)-6-fluoro-1H-indol-5-yl)oxy)-2-fluorophenyl)-1H-imidazol-5-yl)ethyl)-2-fluorophenyl)propanoic acid]", "DSLS NBD1/3D Human Stability delta-T (° C.) @ 100 (μM)": "C (C: ≤5° C.)"},
      {"smiles": "Cc1c(Oc2ccc(F)c(-c3ncc(Cc4cccc(CC(=O)O)n4)[nH]3)c2)c(F)cc2[nH]ccc12", "note": "[Example 91, 2-(6-((2-(2-fluoro-5-((6-fluoro-4-methyl-1H-indol-5-yl)oxy)phenyl)-1H-imidazol-5-yl)methyl)pyridin-2-yl)acetic acid]", "DSLS NBD1/3D Human Stability delta-T (° C.) @ 100 (μM)": "B (B: 5-10° C.)"},
      {"smiles": "CC(O)(c1cccc(CCC(=O)O)c1)c1nnc(-c2cc(Oc3c(F)cc4[nH]ccc4c3F)ccc2F)[nH]1", "note": "(stereo not shown) [Example 250, 3-(3-(1-(5-(5-((4,6-Difluoro-1H-indol-5-yl)oxy)-2-fluorophenyl)-4H-1,2,4-triazol-3-yl)-1-hydroxyethyl)phenyl)propanoic acid]", "DSLS NBD1/3D Human Stability delta-T (° C.) @ 100 (μM)": "B (B: 5-10° C.)"},
      {"smiles": "CC(c1c[nH]c(-c2cc(Oc3c(F)cc4[nH]ccc4c3CC(F)F)ccc2F)n1)c1cccc(CCC(=O)O)c1F", "note": "(single isomer, unassigned) [Example 129B, 3-(3-(1-(2-(5-((4-(2,2-difluoroethyl)-6-fluoro-1H-indol-5-yl)oxy)-2-fluorophenyl)-1H-imidazol-4-yl)ethyl)-2-fluorophenyl)propanoic acid]", "DSLS NBD1/3D Human Stability delta-T (° C.) @ 100 (μM)": "C (C: ≤5° C.)"},
      {"smiles": "Cc1c(Oc2ccc(F)c(-c3ncc(C(O)(c4cccc(CCC(=O)O)c4)C(C)C)[nH]3)c2)c(F)cc2[nH]ccc12", "note": "(stereo not shown) [Example 224, 3-(3-(1-(2-(2-fluoro-5-((6-fluoro-4-methyl-1H-indol-5-yl)oxy)phenyl)-1H-imidazol-5-yl)-1-hydroxy-2-methylpropyl)phenyl) propanoic acid]", "DSLS NBD1/3D Human Stability delta-T (° C.) @ 100 (μM)": "B (B: 5-10° C.)"},
      {"smiles": "Cc1c(Oc2ccc(F)c(-c3nc(C4(c5cccc(CCC(=O)O)c5)OCCO4)c[nH]3)c2)c(F)cc2[nH]ccc12", "note": "[Example 232, 3-(3-(2-(2-(2-fluoro-5-((6-fluoro-4-methyl-1H-indol-5-yl)oxy)phenyl)-1H-imidazol-4-yl)-1,3-dioxolan-2-yl)phenyl)propanoic acid]", "DSLS NBD1/3D Human Stability delta-T (° C.) @ 100 (μM)": "B (B: 5-10° C.)"},
      {"smiles": "CC(=O)CCc1cc(F)cc(C(C)(O)c2c[nH]c(-c3cc(Oc4c(F)cc5[nH]ccc5c4F)ccc3F)n2)c1", "note": "(stereo not shown) [Example 221, 4-(3-(1-(2-(5-((4,6-Difluoro-1H-indol-5-yl)oxy)-2-fluorophenyl)-1H-imidazol-4-yl)-1-hydroxyethyl)-5-fluorophenyl)butan-2-one]", "DSLS NBD1/3D Human Stability delta-T (° C.) @ 100 (μM)": "C (C: ≤5° C.)"},
      {"smiles": "O=C(O)CSc1cccc(Cc2nnc(-c3cccc(Oc4c(F)cc5[nH]ccc5c4F)c3)[nH]2)c1", "note": "[Example 261, 2-((3-((5-(3-((4,6-Difluoro-1H-indol-5-yl)oxy)phenyl)-4H-1,2,4-triazol-3-yl)methyl)phenyl)thio)acetic acid]", "DSLS NBD1/3D Human Stability delta-T (° C.) @ 100 (μM)": "C (C: ≤5° C.)"},
      {"smiles": "Cc1c(Oc2ccc(F)c(-c3ncc(C(C)(O)c4cccc(CCC(=O)O)c4)[nH]3)c2)c(F)cc2[nH]ccc12", "note": "(single isomer, unassigned) [Example 215A, 3-(3-(1-(2-(2-Fluoro-5-((6-fluoro-4-methyl-1H-indol-5-yl)oxy)phenyl)-1H-imidazol-5-yl)-1-hydroxyethyl)phenyl)propanoic acid]", "DSLS NBD1/3D Human Stability delta-T (° C.) @ 100 (μM)": "B (B: 5-10° C.)"}
    ]}
  ]
}
